Data from US10517926B2, “Oligopeptide having proinflammatory cytokine secretion-inhibiting activity” (Osaka University, priority 2015, dated 2019).

Key:
[1] = tested on: cerebral infarction model mice; assay: Osteoclasts after cerebral infarction in vivo (TRAP staining of radius); design: species or system mouse; details: 300 μG i.v. then 336 μg s.c.; radius distal portion, paralyzed side, 48 hours; FIG. 24
Procedure: Cerebral infarction models were produced in the same manner as in Example 10. Four hours after the production of the cerebral infarction models, 300 μG/150 μL of MHP1 administration solution was administered through the cervical vein. Thereafter, 336 μg was continuously administered by subcutaneous injection using an Alzet pump for 21 hours. Forty-eight hours after the production of the cerebral infarction models, the radius distal portion of the left hand (paralyzed side) was stained with TRAP, and the ratio of the stained region (osteoclast surface) relative to the bone surface was calculated based on the obtained staining images.

[2] = tested on: RANK knockdown RAW264.7 cells; assay: RANK dependency: cytokine secretion in RANK knockdown cells; format: cell-based, mouse; details: for secretion of IL-6: FIG. 10; for secretion of TNFα: FIG. 11
Procedure: RAW264.7 cells were suspended in a DMEM medium (+10% FBS), seeded on a 24-well plate, and cultured at 37° C. at a CO2 concentration of 5%. To 100 μl of serum-free DMEM medium, 37.5 ng (final concentration: 5 nM) of siRNA against RANK (a double strand of the sequence represented by SEQ ID NO: 17 and the sequence represented by SEQ ID NO: 18, produced by GeneDesign) or 37.5 ng (final concentration: 5 nM) of control siRNA (a double strand of the sequence represented by SEQ ID NO: 19 and the sequence represented by SEQ ID NO: 20, produced by GeneDesign), and 3 μl of HiPerFect Transfection Reagent (QIAGEN) were added, and the resultant was allowed to stand at room temperature for 10 minutes. This was added to the RAW264.7 cell culture medium. After culture at 37° C. at a CO^2 concentration of 5% for 24 hours, the cells were collected. A protein extract was obtained from the cells by a standard method, and RANK in this extract was detected at a dilution concentration of 1/100 by the Western blotting method (anti-RANK antibody: anti-mRANK (Cat. No. AF692), produced by R&D Systems). […] FIG. 9 confirmed that RANK was knocked down by siRNA against RANK (comparison between lane 2 and lane 3).
MHP1 and LPS were made to act on RANK knockdown cells, as in Example 3, and the concentrations of IL-6 and TNFα in the medium were measured by the ELISA method. FIGS. 10 and 11 show the results.

[3] = tested on: osteoclast precursor cells; assay: Osteoclast differentiation, Osteoclast Culture Kit (TRAP and nuclear staining); format: cell-based
Procedure: Osteoclast Culture Kit V-2 (OSC33, produced by Cosmo Bio Co., Ltd.) was used. According to the manual of the kit, culture of osteoclast precursor cells was started in the presence of M-CSF (final concentration: 50 ng/ml) in the A and B groups, and in the presence of M-CSF (final concentration: 50 ng/ml) and MHP1 (final concentration: 30, 50, or 100 μg/ml) in the C and D groups. Thereafter, 24 hours to 7 days after the start of culture, the A group was cultured in the presence of M-CSF (final concentration: 50 ng/ml), the B group was cultured in the presence of M-CSF (final concentration: 50 ng/ml) and RANKL protein (final concentration: 50 ng/ml), the C group was cultured in the presence of M-CSF (final concentration: 50 ng/ml) and MHP1 (final concentration: 30, 50, or 100 μg/ml), and the D group was cultured in the presence of M-CSF (final concentration: 50 ng/ml), RANKL protein (final concentration: 50 ng/ml), and MHP1 (final concentration: 30, 50, or 100 μg/ml). After culture, the cells were subjected to TRAP staining and nuclear staining according to a standard method.

RAW264.7 cells = assay: Proinflammatory cytokine secretion inhibition, LPS-stimulated macrophage cells (ELISA); format: cell-based, mouse; details: MHP1 30, 50 or 100 μg/ml, LPS 2 ng/ml, 24 hours
Procedure: RAW264.7 cells (mouse-derived macrophage cell line) were cultured in a DMEM medium (+4% FBS) containing MHP1 (final concentration: 30, 50, or 100 μg/ml) and LPS (final concentration: 2 ng/ml) for 24 hours by a standard method. After culture, the concentrations of IL-6 and TNFα in the medium were measured by the ELISA method. The results are shown in FIG. 3 (IL-6) and FIG. 4 (TNFα).

NFκB (p65) = NFκB (p65) activation (TransAM NFkB p65 Kit); format: cell-based, mouse; details: RAW264.7 cells; MHP1 100 μg/ml, 10 minutes; FIG. 12C
Procedure: It has recently been reported that the administration of RANKL protein to mice induces the activation of osteoclasts. Accordingly, the influence of the RANKL peptide on osteoclasts was examined. The specific examination procedures were as follows. MHP1 (final concentration: 100 μg/ml) or RANKL protein (final concentration: 10 ng/ml) was added to a medium (DMEM medium (+4% FBS)) in which RAW264.7 cells were cultured, and the cells were collected after 10 minutes and 3 days.
For the samples collected after 10 minutes, nuclear proteins of the cells were extracted using the Nuclear Extract Kit (Active Motif), and the degree of NFκB (p65) activation was measured by the TransAM NFkB p65 Kit (Active Motif). On the other hand, for the samples collected after 3 days, the mRNA expression levels of NFATc1 and ACP5 were analyzed by real-time RT-PCR.

[4] = tested on: neuron-glia mixed culture; assay: Neuronal cell death by LPS in neuron-glia mixed culture system (MAP2 staining); format: cell-based, mouse; details: B group; MHP1 50 μg/ml pretreatment, LPS 10 μg/ml, 5 days; FIG. 6
Procedure: Neuronal tissue (a mixture of neurons and glial cells) was removed from a mouse fetus 21 days after fertilization (21st fetal day), and cultured in Neurobasal medium (+B-27, +5% HS) for 9 days. Then, the cells were divided into 3 groups (A to C groups), and subjected to the following treatments.
The cells were cultured for 24 hours after the medium was changed to a medium (Neurobasal A/N2 supplement) containing MHP1 (final concentration: 50 μg/ml). Then, LPS (final concentration: 10 μg/ml) was added to the medium, and the cells were further cultured for 5 days. After culture, immunostaining was performed according to a general method using an antibody (M4403, produced by Sigma-Aldrich) against MAP2, which was a neuronal cell marker, as a primary antibody (primary antibody: 1/1000 dilution, and second antibody (A 11001, produced by Invitrogen): 1/1000 dilution). The staining images were observed, and the ratio of the area of the stained region (i.e., the region occupied by the survival neurons) to the culture dish area was calculated.

[5] = RANK knockdown cells (siRNA against RANK)
[6] = control siRNA-introduced RAW264.7 cells

LMVYVVKTSIKIPSSHNLMKGGSTKNWSGN (listed as Mus musculus) [MHP1]
increase in the number of TRAP-positive osteoclasts on the bone ridge due to cerebral infarction [1]: suppressed
secretion of IL-6 [2, 5]: not inhibited
secretion of TNFα [2, 5]: not inhibited
secretion of IL-6 [2, 6]: inhibited
secretion of TNFα [2, 6]: inhibited
differentiation of osteoclasts promoted by RANKL ([3]; M-CSF 50 ng/ml + RANKL protein 50 ng/ml + MHP1 30, 50 or 100 μg/ml, FIG. 13 (a)): inhibited
differentiation of osteoclasts by the substance itself ([3]; with M-CSF 50 ng/ml, MHP1 30, 50 or 100 μg/ml or RANKL protein 50 ng/ml, FIG. 13): did not occur
increase in the amount of IL-6 secretion by LPS (RAW264.7 cells; FIG. 3): suppressed
increase in the amount of TNFα secretion by LPS (RAW264.7 cells; FIG. 4): suppressed
NFκB (p65) activation (NFκB (p65)): slightly activated
neuronal cell death by LPS [4]: suppressed
